According to PMC9351465, “Mechanism-based heparanase inhibitors reduce cancer metastasis in vivo” (Proceedings of the National Academy of Sciences of the …, 2022):
pIC50: −log10 of the molar value. Values joined by “and” are separate entries in the source; they are usually repeats but may differ in a detail not shown here. Identical values can stand only once.

Key:
HPSE [1] = target: T1, HPSE (Homo sapiens, UniProt Q9Y251); assay: H35SPG basement membrane (ECM) digest by recombinant HPSE; format: biochemical
T1 sequence (Q9Y251 158-543 limits assumed): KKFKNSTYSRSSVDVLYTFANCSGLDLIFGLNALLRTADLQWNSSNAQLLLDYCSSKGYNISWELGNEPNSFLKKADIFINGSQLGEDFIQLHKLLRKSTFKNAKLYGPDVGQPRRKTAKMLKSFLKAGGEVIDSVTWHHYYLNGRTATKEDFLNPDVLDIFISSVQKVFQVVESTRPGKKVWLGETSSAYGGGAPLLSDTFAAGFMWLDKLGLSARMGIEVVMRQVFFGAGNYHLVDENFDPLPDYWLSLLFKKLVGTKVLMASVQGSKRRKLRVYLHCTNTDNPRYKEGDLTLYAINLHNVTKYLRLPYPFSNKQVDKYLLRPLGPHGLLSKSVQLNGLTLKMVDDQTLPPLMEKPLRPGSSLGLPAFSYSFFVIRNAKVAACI
T1 sequence (Q9Y251 36-109 limits assumed): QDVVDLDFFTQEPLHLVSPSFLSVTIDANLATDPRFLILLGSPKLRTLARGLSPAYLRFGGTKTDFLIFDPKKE
Text: Finally, we assessed our inhibitors against HPSE-mediated degradation of bona fide HSPGs in an ECM environment. Cultured bovine corneal endothelial cells secrete a subendothelial basement membrane material rich in proteoglycans, which can be radiolabeled by growth in the presence of ^35SO4^2− ([50]). Solubilized H^35S chains released from H^35SPGs by HPSE digestion can be resolved chromatographically, with HPSE inhibition leading to a corresponding loss of signal. […] We also tested inhibition of endogenous cellular HPSE using this assay format. […]
ECM coated 35 mm culture dishes containing 35S labelled HS were prepared as previously described (10). Briefly, bovine corneal endothelial cells were plated at an initial density of 2x10^5 cells/ml, with 4% dextran T-40 (Sigma) included in the growth medium. Na235SO4 (25 µCi/ml) was added to the incubation medium on days 2 and 5 after seeding. On day 12, subendothelial ECM is exposed by dissolving the cells with PBS containing 0.5% Triton X-100 and 20 mM NH4OH, followed by four washes with PBS.
For HS-degradation assays, ECM coated dishes were incubated with 200 ng recombinant HPSE in 1 mL reaction mixture (10 mM buffer Phosphate-Citrate pH 6.0, 50 mM NaCl, 1 mM DTT, 1 mM CaCl2) containing HPSE inhibitors or DMSO control. Plates were incubated at 37°C for 5 h, then assay medium collected and applied to a 0.9×30 cm Sepharose 6B size exclusion column. The Sepharose 6B column was eluted with PBS, and 35S radioactivity of 0.2 mL fractions quantitated using a liquid scintillation analyzer (Packard BioScience) (11). […]
Matrigel and […]
non-migrating cells in the upper side of the Boyden filter were removed by swabbing, then invading cells on the bottom side of the transwell filter imaged for analysis. […]
B16 melanoma - Twenty minutes before tumor cell inoculation, C57BL/J6 mice (n=5) were injected intraperitoneally with vehicle alone (PBS), compound 2 (300 nmol/mouse), or SST0001 (150 µg/mouse). Mice were subsequently intravenously inoculated with 1.5x105

human platelet HPSE = target: T2, human platelet HPSE (Homo sapiens, UniProt Q9Y251); assay: cABPP of human platelet lysates, HPSE band
T2 sequence (Q9Y251 158-543 limits assumed): T1 sequence (Q9Y251 158-543 limits assumed)
T2 sequence (Q9Y251 36-109 limits assumed): T1 sequence (Q9Y251 36-109 limits assumed)

HPSE [2] = target: T1, HPSE; assay: competitive activity-based protein profiling (cABPP) with ABP 7, recombinant HPSE; conditions: recombinant HPSE 20 nM, 1 h preincubation at 37°C, then 100 nM ABP 7, pH 5.5

CC(=O)N[C@H]1[C@@H](O[C@H]2[C@H](O)[C@@H](O)[C@@H]3O[C@@H]3[C@@H]2C(=O)O)O[C@H](CO)[C@@H](O)[C@@H]1O [compound 2]
inhibition of recombinant HPSE-mediated H35SPG cleavage (HPSE [1]; 200 ng HPSE, pH 6.0, 37°C, 5 h): robust, dose-dependent inhibition
level of inhibition of H35SPG cleavage relative to 4.6 μM 10 (HPSE [1]; 1 μM 2 or 3 compared to 4.6 μM 10): comparable levels of inhibition
pIC50 (human platelet HPSE; HPSE IC50, human platelet lysates, cABPP, n = 3): ~6.28 and 6.28
selectivity of HPSE inhibition in platelet lysates (human platelet HPSE; human platelet lysates containing both HPSE and GUSB): highly selective inhibition of human platelet HPSE
HPSE inhibition (cABPP) (HPSE [2]): nanomolar HPSE inhibition potencies
